# Data from paper PMC9415608, “Design, Synthesis and Biological Investigation of 2-Anilino Triazolopyrimidines as Tubulin Polymerization Inhibitors with Anticancer Activities” (Pharmaceuticals, 2022).
# Where two headings read alike, the source gives them in different places.
# What was measured:
# A549 = assay: In vitro cell growth inhibition, resazurin viability assay; type: cell-based, human; conditions: Homo sapiens, A549; 72 h, resazurin; mean ± SE
# Method: (§1) All the cell lines used in this paper were of human origin and purchased from the American Type Culture Collection (ATCC, Manassas, VA, USA). Colon adenocarcinoma (HT-29), non-small cell lung carcinoma (A549), cervix carcinoma (HeLa) and breast adenocarcinoma (MDA-MB-231) cells were grown in RPMI (HT29) or DMEM (A549, HeLa, MDA-MB-231) medium (Gibco, Milano, Italy). Both media were supplemented with 115 units/mL of penicillin G (Gibco, Milano, Italy), 115 μg/mL of streptomycin (Invitrogen, Milano, Italy) and 10% fetal bovine serum (Invitrogen, Milano, Italy). All cell lines were grown at 37 °C in a humidified 5% CO2 atmosphere. The cells were grown in 2 mL of complete medium.
# (§2) Stock solutions were prepared for each compound by dissolving in DMSO at the final concentration of 10 mM.
# (§3) The cells were seeded in 96-well plates at the appropriate density for each cell line. The respective cell line densities used for the antiproliferative assay were HeLa and HT29 5000 cells/well, A549 4000 cells/well and MDA-MB-231 7000 cells/well. The total volume of medium was 100 µL. After 24 h, the cells were treated by performing serial 5-fold dilutions of the tested compounds starting from a concentration of 10 μM. All experimental conditions were tested in triplicate for statistical analysis. After 72 h of incubation, 10 μL of 100 μg/mL resazurin solution was added to each well and the plate was re-incubated for 3–4 h. The fluorescence of the wells in each plate was monitored using a Spark 10M spectrophotometer (Tecan Group Ltd., Mannedorf, Switzerland) with a 535 nm excitation wavelength and a 600 nm emission wavelength.
# HT29 = assay: as above; type: cell-based, human; conditions: for IC50: Homo sapiens, HT-29, 72 h, resazurin, mean ± SE
# Method: as §1, §2, §3
# HeLa = assay: as above; type: cell-based, human; conditions: for IC50: Homo sapiens, 72 h, resazurin, mean ± SE
# Method: as §1, §2, §3
# MDA-MB-231 = assay: as above; type: cell-based, human; conditions: Homo sapiens, MDA-MB-231; 72 h, resazurin; mean ± SE
# Method: as §1, §2, §3
# [1] = tested on: MDA-MB-231, HeLa, A549 and HT-29 cancer cell lines; assay: Antiproliferative activity stated across the panel of cancer cell lines; type: cell-based, human; conditions: for IC50: Homo sapiens, read-out: IC50
# Method: as §1, §2, §3
# [2] = stated for the panel of cancer cell lines as a whole
SMILES,melting point [°C],IC50 (A549) [µM],fold reduction in potency relative to 3a (HT29; HT-29 cells) [fold],IC50 (HT29) [µM],IC50 (HeLa) [µM],IC50 (MDA-MB-231) [µM],IC50 ([1]; against three of the four cancer cell lines (not HT-29)) [µM],fold reduction in antiproliferative activity relative to 3d ([1]; range over cell lines),"IC50 [1, 2] [µM]",fold increase in antiproliferative activity relative to 3k ([1]; three of the four cancer cell lines),fold more active than 3n (HT29; HT-29 cells) [fold],fold more active than 3n (HeLa; HeLa cells) [fold]
"COc1cc(-c2ccnc3nc(Nc4ccccc4)nn23)cc(OC)c1OC [Compound 3a, N-Phenyl-7-(3,4,5-trimethoxyphenyl)-[1,2,4]triazolo[1,5-a]pyrimidin-2-amine]",235 to 236,,,,,,,,,,,
"COc1cc(-c2ccnc3nc(Nc4cccnc4)nn23)cc(OC)c1OC [Compound 3b, N-(Pyridin-3-yl)-7-(3,4,5-trimethoxyphenyl)-[1,2,4]triazolo[1,5-a]pyrimidin-2-amine]",172 to 174,> 10,3,3.42 ± 0.41,> 10,> 10,> 10,,,,,
"COc1cc(-c2ccnc3nc(Nc4ccc(F)cc4)nn23)cc(OC)c1OC [Compound 3c, N-(4-Fluorophenyl)-7-(3,4,5-trimethoxyphenyl)-[1,2,4]triazolo[1,5-a]pyrimidin-2-amine]",234 to 235,> 10,,> 10,5.44 ± 1.05,> 10,,,,,,
"COc1cc(-c2ccnc3nc(Nc4cccc(C)c4)nn23)cc(OC)c1OC [Compound 3e, N-(m-Tolyl)-7-(3,4,5-trimethoxyphenyl)-[1,2,4]triazolo[1,5-a]pyrimidin-2-amine]",229 to 230,1.87 ± 0.17,,1.38 ± 0.09,0.39 ± 0.02,> 10,,10–46 fold,,,,
"COc1cc(-c2ccnc3nc(Nc4cc(C)cc(C)c4)nn23)cc(OC)c1OC [Compound 3g, N-(3,5-Dimethylphenyl)-7-(3,4,5-trimethoxyphenyl)-[1,2,4]triazolo[1,5-a]pyrimidin-2-amine]",228 to 230,> 10,,> 10,> 10,> 10,,,> 10,,,
"CCCc1ccc(Nc2nc3nccc(-c4cc(OC)c(OC)c(OC)c4)n3n2)cc1 [Compound 3i, N-(4-Propylphenyl)-7-(3,4,5-trimethoxyphenyl)-[1,2,4]triazolo[1,5-a]pyrimidin-2-amine]",185 to 187,> 10,,> 10,> 10,> 10,,,,,,
"COc1cc(-c2ccnc3nc(Nc4ccc(C(C)C)cc4)nn23)cc(OC)c1OC [Compound 3j, N-(4-Isopropylphenyl)-7-(3,4,5-trimethoxyphenyl)-[1,2,4]triazolo[1,5-a]pyrimidin-2-amine]",212 to 214,> 10,,> 10,4.7 ± 0.59,> 10,,,,,,
"COc1ccc(Nc2nc3nccc(-c4cc(OC)c(OC)c(OC)c4)n3n2)cc1 [Compound 3k, N-(4-Methoxyphenyl)-7-(3,4,5-trimethoxyphenyl)-[1,2,4]triazolo[1,5-a]pyrimidin-2-amine]",213 to 215,,,,,,,,,,,
"CCOc1ccc(Nc2nc3nccc(-c4cc(OC)c(OC)c(OC)c4)n3n2)cc1 [Compound 3m, N-(4-Ethoxyphenyl)-7-(3,4,5-trimethoxyphenyl)-[1,2,4]triazolo[1,5-a]pyrimidin-2-amine]",205 to 207,> 10,,6.16 ± 0.97,> 10,> 10,,,> 10,,,
"COc1cc(-c2ccnc3nc(Nc4ccc5c(c4)OCO5)nn23)cc(OC)c1OC [Compound 3n, N-(Benzo[d][1,3]dioxol-5-yl)-7-(3,4,5-trimethoxyphenyl)-[1,2,4]triazolo[1,5-a]pyrimidin-2-amine]",234 to 236,1.44 ± 0.26,,1.39 ± 0.06,,6.1 ± 1.72,,,,1.5- to 4 fold,,
"COc1cc(-c2ccnc3nc(Nc4ccc5c(c4)OCCO5)nn23)cc(OC)c1OC [Compound 3o, N-(2,3-Dihydrobenzo[b][1,4]dioxin-6-yl)-7-(3,4,5-trimethoxyphenyl)-[1,2,4]triazolo[1,5-a]pyrimidin-2-amine]",212 to 214,2.42 ± 0.12,,0.67 ± 0.12,0.29 ± 0.031,> 10,,,,,2,3
"COc1cc(-c2ccnc3nc(NCc4ccccc4)nn23)cc(OC)c1OC [Compound 3p, N-Benzyl-7-(3,4,5-trimethoxyphenyl)-[1,2,4]triazolo[1,5-a]pyrimidin-2-amine]",144 to 146,> 10,,> 10,> 10,9.3 ± 0.22,,,> 10,,,
"COc1cc(-c2ccnc3nc(NCc4ccc(Cl)cc4)nn23)cc(OC)c1OC [Compound 3q, N-(4-Chlorobenzyl)-7-(3,4,5-trimethoxyphenyl)-[1,2,4]triazolo[1,5-a]pyrimidin-2-amine]",171 to 173,> 10,,> 10,> 10,> 10,,,,,,
"COc1cc(-c2ccnc3nc(NCc4ccc(C)cc4)nn23)cc(OC)c1OC [Compound 3r, N-(4-Methylbenzyl)-7-(3,4,5-trimethoxyphenyl)-[1,2,4]triazolo[1,5-a]pyrimidin-2-amine]",156 to 158,> 10,,> 10,> 10,> 10,,,> 10,,,
"COc1ccc(CNc2nc3nccc(-c4cc(OC)c(OC)c(OC)c4)n3n2)cc1 [Compound 3s, N-(4-Methoxybenzyl)-7-(3,4,5-trimethoxyphenyl)-[1,2,4]triazolo[1,5-a]pyrimidin-2-amine]",190 to 192,> 10,,> 10,> 10,> 10,,,> 10,,,
"COc1cc(-c2ccnc3nc(NCc4ccc5c(c4)OCO5)nn23)cc(OC)c1OC [Compound 3t, N-(Benzo[d][1,3]dioxol-5-ylmethyl)-7-(3,4,5-trimethoxyphenyl)-[1,2,4]triazolo[1,5-a]pyrimidin-2-amine]",233 to 235,> 10,,> 10,> 10,> 10,,,> 10,,,
"COc1cc(-c2ccnc3nc(NCCc4ccccc4)nn23)cc(OC)c1OC [Compound 3u, N-Phenethyl-7-(3,4,5-trimethoxyphenyl)-[1,2,4]triazolo[1,5-a]pyrimidin-2-amine]",138 to 139,> 10,,6.74 ± 0.5,> 10,8.7 ± 1.1,,,> 10,,,
"COc1cc(-c2ccnc3nc(NCCCc4ccccc4)nn23)cc(OC)c1OC [Compound 3v, N-(3-Phenylpropyl)-7-(3,4,5-trimethoxyphenyl)-[1,2,4]triazolo[1,5-a]pyrimidin-2-amine]",98 to 100,> 10,,> 10,> 10,> 10,,,> 10,,,
